Laboratory results published in ChEMBL document CHEMBL2401728, “An unexpected Dimroth rearrangement leading to annelated thieno[3,2-d][1,2,3]triazolo[1,5-a]pyrimidines with potent antitumor activity” (Eur J Med Chem, 2013).

Key:
Assay type in all cases: functional
NCI-H322M = experiment: Cytotoxicity against human NCI-H322M cells assessed as cellular growth at 0.01 uM after 48 hrs by SRB assay relative to control
SR = experiment: Cytotoxicity against human SR cells assessed as cellular growth at 0.1 uM after 48 hrs by SRB assay relative to control
ACHN = experiment: Cytotoxicity against human ACHN cells assessed as cellular growth at 0.01 uM after 48 hrs by SRB assay relative to control
IGROV-1 = experiment: Cytotoxicity against human IGROV1 cells assessed as cellular growth at 1 uM after 48 hrs by SRB assay relative to control
HL-60(TB) = experiment: Cytotoxicity against human HL-60(TB) cells assessed as cellular growth at 0.01 uM after 48 hrs by SRB assay relative to control
A498 = experiment: Cytotoxicity against human A498 cells assessed as cellular growth at 0.1 uM after 48 hrs by SRB assay relative to control
OVCAR-3 [1] = experiment: Cytotoxicity against human OVCAR3 cells assessed as cellular growth at 100 uM after 48 hrs by SRB assay relative to control
SN12C = experiment: Cytotoxicity against human SN12C cells assessed as cellular growth at 1 uM after 48 hrs by SRB assay relative to control
NCI-H522 = experiment: Cytotoxicity against human NCI-H522 cells assessed as cellular growth at 0.01 uM after 48 hrs by SRB assay relative to control
HCT-15 = experiment: Cytotoxicity against human HCT15 cells assessed as cellular growth at 0.1 uM after 48 hrs by SRB assay relative to control
RXF 393 = experiment: Cytotoxicity against human RXF393 cells after 48 hrs by SRB assay; settings: RXF 393, 48 h
[2] = Cytotoxicity against human EKVX cells assessed as cellular growth at 0.1 uM after 48 hrs by SRB assay relative to control
LOX IMVI [3] = experiment: Cytotoxicity against human LOXIMVI cells assessed as cellular growth at 0.1 uM after 48 hrs by SRB assay relative to control
OVCAR-3 [4] = experiment: Cytotoxicity against human OVCAR3 cells assessed as cellular growth at 0.01 uM after 48 hrs by SRB assay relative to control
Hs-578T = experiment: Cytotoxicity against human Hs578T cells assessed as cellular growth at 10 uM after 48 hrs by SRB assay relative to control
LOX IMVI [5] = experiment: Cytotoxicity against human LOXIMVI cells after 48 hrs by SRB assay
SF-539 = experiment: Cytotoxicity against human SF539 cells after 48 hrs by SRB assay; settings: SF-539, 48 h
M14 [6] = experiment: Cytotoxicity against human M14 cells assessed as cellular growth at 0.1 uM after 48 hrs by SRB assay relative to control
NCI-H226 [7] = experiment: Cytotoxicity against human NCI-H226 cells after 48 hrs by SRB assay; settings: NCI-H226, 48 h
HOP-92 = experiment: Cytotoxicity against human HOP92 cells after 48 hrs by SRB assay; settings: HOP-92, 48 h
MDA-MB-468 = experiment: Cytotoxicity against human MDA-MB-468 cells assessed as cellular growth at 100 uM after 48 hrs by SRB assay relative to control
MDA-MB-231 = experiment: Cytotoxicity against human MDA-MB-231 cells assessed as cellular growth at 0.01 uM after 48 hrs by SRB assay relative to control
COLO 205 = experiment: Cytotoxicity against human COLO205 cells after 48 hrs by SRB assay; settings: COLO 205, 48 h
U-251 = experiment: Cytotoxicity against human U251 cells assessed as cellular growth at 100 uM after 48 hrs by SRB assay relative to control
NCI-H226 [8] = experiment: Cytotoxicity against human NCI-H226 cells assessed as cellular growth at 1 uM after 48 hrs by SRB assay relative to control
SF-268 = experiment: Cytotoxicity against human SF268 cells assessed as cellular growth at 0.01 uM after 48 hrs by SRB assay relative to control
786-0 = experiment: Cytotoxicity against human 786-0 cells assessed as cellular growth at 100 uM after 48 hrs by SRB assay relative to control
NCI-H460 = experiment: Cytotoxicity against human NCI-H460 cells after 48 hrs by SRB assay; settings: NCI-H460, 48 h
Malme-3M = experiment: Cytotoxicity against human MALME-3M cells assessed as cellular growth at 0.01 uM after 48 hrs by SRB assay relative to control
SK-OV-3 = experiment: Cytotoxicity against human SKOV3 cells assessed as cellular growth at 0.01 uM after 48 hrs by SRB assay relative to control
M14 [9] = experiment: Cytotoxicity against human M14 cells after 48 hrs by SRB assay; settings: M14, 48 h
[10] = Cytotoxicity against human EKVX cells assessed as cellular growth at 0.01 uM after 48 hrs by SRB assay relative to control
T47D = experiment: Cytotoxicity against human T47D cells after 48 hrs by SRB assay
A549 = experiment: Cytotoxicity against human A549 cells assessed as cellular growth at 0.1 uM after 48 hrs by SRB assay relative to control
[11] = read-out: LC50 (the source's name)
[12] = read-out: pLC50 (the source's name) (converted)

O=C(CCCn1c2c(sc3ccccc32)c(=O)n2nnc(-c3ccccc3)c12)NCCc1c[nH]cn1 gave an Activity (NCI-H322M) of 104%, an Activity (SR) of 85% and an Activity (ACHN) of 104%. For the same compound, the Activity (IGROV-1) was 41%, the Activity (HL-60(TB)) was 93% and the Activity (A498) was 72%. The Activity (OVCAR-3 [1]) was -100%, the Activity (SN12C) was 36% and the Activity (NCI-H522) was 65%. For the same compound, the Activity (HCT-15) was 78%, the GI50 (RXF 393; read-out: GI50) was 2.2 µM and the CC50 (RXF 393; [11]) was 7.77 µM. The TGI (RXF 393; read-out: TGI) was 4.14 µM, the GI50 (RXF 393; read-out: pGI50 (converted)) was 2.19 µM and the CC50 (RXF 393; [12]) was 7.76 µM. It also gave a TGI (RXF 393; read-out: pTGI (converted)) of 4.17 µM, an Activity [2] of 83% and an Activity (LOX IMVI [3]) of 89%. The Activity (OVCAR-3 [4]) was 133%, the Activity (Hs-578T) was -50% and the GI50 (LOX IMVI [5]; read-out: GI50) was 1.51 µM. The CC50 (LOX IMVI [5]; [11]) was 5.49 µM, the TGI (LOX IMVI [5]; read-out: TGI) was 2.88 µM and the GI50 (LOX IMVI [5]; read-out: pGI50 (converted)) was 1.51 µM. For the same compound, the CC50 (LOX IMVI [5]; [12]) was 5.5 µM, the TGI (LOX IMVI [5]; read-out: pTGI (converted)) was 2.88 µM and the GI50 (SF-539; read-out: GI50) was 0.0206 µM. The CC50 (SF-539; [11]) was 3.14 µM, the TGI (SF-539; read-out: TGI) was 0.122 µM and the GI50 (SF-539; read-out: pGI50 (converted)) was 0.0204 µM. The CC50 (SF-539; [12]) was 3.16 µM, the TGI (SF-539; read-out: pTGI (converted)) was 0.123 µM and the Activity (M14 [6]) was 68%. For the same compound, the GI50 (NCI-H226 [7]; read-out: GI50) was 2.75 µM, the CC50 (NCI-H226 [7]; [11]) was 41.2 µM and the TGI (NCI-H226 [7]; read-out: TGI) was 7.49 µM. For the same compound, the GI50 (NCI-H226 [7]; read-out: pGI50 (converted)) was 2.75 µM, the CC50 (NCI-H226 [7]; [12]) was 40.7 µM and the TGI (NCI-H226 [7]; read-out: pTGI (converted)) was 7.41 µM. It also gave a GI50 (HOP-92; read-out: GI50) of 4.06 µM, a CC50 (HOP-92; [11]) of over 100 µM and a TGI (HOP-92; read-out: TGI) of 20.5 µM. For the same compound, the GI50 (HOP-92; read-out: pGI50 (converted)) was 4.07 µM, the CC50 (HOP-92; [12]) was over 100 µM and the TGI (HOP-92; read-out: pTGI (converted)) was 20.4 µM. For the same compound, the Activity (MDA-MB-468) was -100%, the Activity (MDA-MB-231) was 115% and the GI50 (COLO 205; read-out: GI50) was 0.332 µM. It also gave a CC50 (COLO 205; [11]) of 5.9 µM, a TGI (COLO 205; read-out: TGI) of 2.23 µM and a GI50 (COLO 205; read-out: pGI50 (converted)) of 0.331 µM. It also gave a CC50 (COLO 205; [12]) of 5.89 µM, a TGI (COLO 205; read-out: pTGI (converted)) of 2.24 µM and an Activity (U-251) of -100%. For the same compound, the Activity (NCI-H226 [8]) was 101%, the Activity (SF-268) was 105% and the Activity (786-0) was -68%. The GI50 (NCI-H460; read-out: GI50) was 1.59 µM, the TGI (NCI-H460; read-out: TGI) was 3.95 µM and the GI50 (NCI-H460; read-out: pGI50 (converted)) was 1.58 µM. For the same compound, the TGI (NCI-H460; read-out: pTGI (converted)) was 3.98 µM, the Activity (Malme-3M) was 100% and the Activity (SK-OV-3) was 108%. It also gave a GI50 (M14 [9]; read-out: GI50) of 0.327 µM, a TGI (M14 [9]; read-out: TGI) of 2.05 µM and a GI50 (M14 [9]; read-out: pGI50 (converted)) of 0.324 µM. The TGI (M14 [9]; read-out: pTGI (converted)) was 2.04 µM, the Activity [10] was 104% and the GI50 (T47D; read-out: GI50) was 1.27 µM. For the same compound, the CC50 (T47D; [11]) was 30.6 µM, the TGI (T47D; read-out: TGI) was 6.37 µM and the GI50 (T47D; read-out: pGI50 (converted)) was 1.26 µM. The CC50 (T47D; [12]) was 30.9 µM, the TGI (T47D; read-out: pTGI (converted)) was 6.31 µM and the Activity (A549) was 99%.
